# From ChEMBL document CHEMBL3112428, “Biological evaluation of diazene derivatives as anti-tubercular compounds” (Eur J Med Chem, 2014)
# The source made the active and inactive calls. The calls are words filed in the database; no cut-off is given here.
# What was measured:
# Assay type in all cases: functional, organism-based
# [1] = system: Mycobacterium tuberculosis; assay: Antituberculosis activity against multidrug-resistant Mycobacterium tuberculosis LAM1 assessed as growth inhibition at 0.1 ug/ml measured everyday by BACTEC assay
# [2] = system: Mycobacterium tuberculosis; assay: Antituberculosis activity against multidrug-resistant Mycobacterium tuberculosis LAM1 assessed as growth inhibition at <= 10 ug/ml measured everyday by BACTEC assay
# [3] = system: Mycobacterium tuberculosis; assay: Antituberculosis activity against multidrug-resistant Mycobacterium tuberculosis LAM1 assessed as growth inhibition at 1 to 5 ug/ml measured everyday by BACTEC assay
structure (smiles),measurement,setting,value
NNC(=O)c1ccncc1 [ISONIAZID],growth inhibition (GI),[1],inactive
CCOC(=O)/N=N/C(=O)Nc1ccc(C)cc1,growth inhibition (GI),[2],inactive
O=C(/N=N/c1ccc(C(F)(F)F)cc1)Nc1ccccc1,growth inhibition (GI),[3],Active
